{"source": "ChEMBL document CHEMBL3885881", "about": "“DrugMatrix”", "species_on_record": "Rattus norvegicus", "test": "DrugMatrix - Regimen: Daily Repeat", "assay_type": "toxicity, organism-based, Sprague-Dawley", "design": "regimen Daily Repeat, gender Male, age 6-8 weeks", "conditions": "in vivo, po, 10 mg/kg, route oral GAVAGE, dose level Low, […]; for ABSOLUTE BASOPHIL / ABSOLUTE EOSINOPHIL / ABSOLUTE LYMPHOCYTE / ABSOLUTE MONOCYTE / ABSOLUTE SEGMENTED NEUTROPHIL / BASOPHIL / EOSINOPHIL / ERYTHROCYTE COUNT / HEMATOCRIT / HEMOGLOBIN / LEUKOCYTE COUNT / LYMPHOCYTE / MEAN CORPUSCULAR HEMOGLOBIN / MEAN CORPUSCULAR HEMOGLOBIN CONCENTRATION / MEAN CORPUSCULAR VOLUME / MONOCYTE / NEUTROPHIL / NUCLEATED RED BLOOD CELLS / PLATELET COUNT: tissue Blood; for ALANINE AMINOTRANSFERASE / ALBUMIN / ALKALINE PHOSPHATASE / ASPARTATE AMINOTRANSFERASE / BLOOD UREA NITROGEN / CARBON DIOXIDE / CHLORIDE / CHOLESTEROL / CREATINE PHOSPHOKINASE / CREATININE / GLUCOSE / LACTATE DEHYDROGENASE / LIPASE / PHOSPHORUS / POTASSIUM / SODIUM / TOTAL BILIRUBIN / TOTAL PROTEIN / URIC ACID: tissue Plasma"}
{"smiles": "C#C[C@]1(O)CC[C@H]2[C@@H]3CCc4cc(O)ccc4[C@H]3CC[C@@]21C", "note": "[ETHINYL ESTRADIOL]", "values": [{"measurement": "ABSOLUTE BASOPHIL", "setting": "72 h, time 3 day", "value": 0, "unit": "CELLS/uL"}, {"measurement": "ABSOLUTE EOSINOPHIL", "setting": "72 h, time 3 day", "value": 112, "unit": "CELLS/uL"}, {"measurement": "ABSOLUTE LYMPHOCYTE", "setting": "72 h, time 3 day", "value": 12658, "unit": "CELLS/uL"}, {"measurement": "ABSOLUTE MONOCYTE", "setting": "72 h, time 3 day", "value": 346, "unit": "CELLS/uL"}, {"measurement": "ABSOLUTE SEGMENTED NEUTROPHIL", "setting": "72 h, time 3 day", "value": 1350.67, "unit": "CELLS/uL"}, {"measurement": "BASOPHIL", "setting": "72 h, time 3 day", "value": 0, "unit": "%"}, {"measurement": "EOSINOPHIL", "setting": "72 h, time 3 day", "value": 1, "unit": "%"}, {"measurement": "ERYTHROCYTE COUNT", "setting": "72 h, time 3 day", "value": 5.67, "unit": "x10E6/uL"}, {"measurement": "HEMATOCRIT", "setting": "72 h, time 3 day", "value": 36.5, "unit": "%"}, {"measurement": "HEMOGLOBIN", "setting": "72 h, time 3 day", "value": 13.83, "unit": "G/DL"}, {"measurement": "LEUKOCYTE COUNT", "setting": "72 h, time 3 day", "value": 14.47, "unit": "x10E3/uL"}, {"measurement": "LYMPHOCYTE", "setting": "72 h, time 3 day", "value": 87.33, "unit": "%"}, {"measurement": "MEAN CORPUSCULAR HEMOGLOBIN", "setting": "72 h, time 3 day", "value": 24.43, "unit": "pg"}, {"measurement": "MEAN CORPUSCULAR HEMOGLOBIN CONCENTRATION", "setting": "72 h, time 3 day", "value": 37.9, "unit": "G/DL"}, {"measurement": "MEAN CORPUSCULAR VOLUME", "setting": "72 h, time 3 day", "value": 64.47, "unit": "fL"}, {"measurement": "MONOCYTE", "setting": "72 h, time 3 day", "value": 2.33, "unit": "%"}, {"measurement": "NEUTROPHIL", "setting": "72 h, time 3 day", "value": 9.33, "unit": "%"}, {"measurement": "NUCLEATED RED BLOOD CELLS", "setting": "72 h, time 3 day", "value": "0 /100WBC"}, {"measurement": "PLATELET COUNT", "setting": "72 h, time 3 day", "value": 1151, "unit": "x10E3/uL"}, {"measurement": "ALANINE AMINOTRANSFERASE", "setting": "72 h, time 3 day", "value": 33.67, "unit": "u/L"}, {"measurement": "ALBUMIN", "setting": "72 h, time 3 day", "value": 3.67, "unit": "G/DL"}, {"measurement": "ALKALINE PHOSPHATASE", "setting": "72 h, time 3 day", "value": 715.33, "unit": "u/L"}, {"measurement": "ASPARTATE AMINOTRANSFERASE", "setting": "72 h, time 3 day", "value": 58.67, "unit": "u/L"}, {"measurement": "BLOOD UREA NITROGEN", "setting": "72 h, time 3 day", "value": 12, "unit": "mg/dL"}, {"measurement": "CARBON DIOXIDE", "setting": "72 h, time 3 day", "value": 22, "unit": "mmol/L"}, {"measurement": "CHLORIDE", "setting": "72 h, time 3 day", "value": 103.33, "unit": "MEQ/L"}, {"measurement": "CHOLESTEROL", "setting": "72 h, time 3 day", "value": 20, "unit": "mg/dL"}, {"measurement": "CREATINE PHOSPHOKINASE", "setting": "72 h, time 3 day", "value": 384.33, "unit": "u/L"}, {"measurement": "CREATININE", "setting": "72 h, time 3 day", "value": 0.1, "unit": "mg/dL"}, {"measurement": "GLUCOSE", "setting": "72 h, time 3 day", "value": 148.33, "unit": "mg/dL"}, {"measurement": "LACTATE DEHYDROGENASE", "setting": "72 h, time 3 day", "value": 168.67, "unit": "u/L"}, {"measurement": "LIPASE", "setting": "72 h, time 3 day", "value": 8, "unit": "u/L"}, {"measurement": "PHOSPHORUS", "setting": "72 h, time 3 day", "value": 10.77, "unit": "mg/dL"}, {"measurement": "POTASSIUM", "setting": "72 h, time 3 day", "value": 6.1, "unit": "MEQ/L"}, {"measurement": "SODIUM", "setting": "72 h, time 3 day", "value": 141.07, "unit": "MEQ/L"}, {"measurement": "TOTAL BILIRUBIN", "setting": "72 h, time 3 day", "value": 0.13, "unit": "mg/dL"}, {"measurement": "TOTAL PROTEIN", "setting": "72 h, time 3 day", "value": 5.3, "unit": "G/DL"}, {"measurement": "URIC ACID", "setting": "72 h, time 3 day", "value": 1.13, "unit": "mg/dL"}, {"measurement": "ABSOLUTE BASOPHIL", "setting": "120 h, time 5 day", "value": 0, "unit": "CELLS/uL"}, {"measurement": "ABSOLUTE EOSINOPHIL", "setting": "120 h, time 5 day", "value": 138, "unit": "CELLS/uL"}, {"measurement": "ABSOLUTE LYMPHOCYTE", "setting": "120 h, time 5 day", "value": 9196.33, "unit": "CELLS/uL"}, {"measurement": "ABSOLUTE MONOCYTE", "setting": "120 h, time 5 day", "value": 408.33, "unit": "CELLS/uL"}, {"measurement": "ABSOLUTE SEGMENTED NEUTROPHIL", "setting": "120 h, time 5 day", "value": 1390.67, "unit": "CELLS/uL"}, {"measurement": "BASOPHIL", "setting": "120 h, time 5 day", "value": 0, "unit": "%"}, {"measurement": "EOSINOPHIL", "setting": "120 h, time 5 day", "value": 1, "unit": "%"}, {"measurement": "ERYTHROCYTE COUNT", "setting": "120 h, time 5 day", "value": 5.71, "unit": "x10E6/uL"}, {"measurement": "HEMATOCRIT", "setting": "120 h, time 5 day", "value": 34.9, "unit": "%"}, {"measurement": "HEMOGLOBIN", "setting": "120 h, time 5 day", "value": 13.2, "unit": "G/DL"}, {"measurement": "LEUKOCYTE COUNT", "setting": "120 h, time 5 day", "value": 11.13, "unit": "x10E3/uL"}, {"measurement": "LYMPHOCYTE", "setting": "120 h, time 5 day", "value": 83, "unit": "%"}, {"measurement": "MEAN CORPUSCULAR HEMOGLOBIN", "setting": "120 h, time 5 day", "value": 23.1, "unit": "pg"}, {"measurement": "MEAN CORPUSCULAR HEMOGLOBIN CONCENTRATION", "setting": "120 h, time 5 day", "value": 37.83, "unit": "G/DL"}, {"measurement": "MEAN CORPUSCULAR VOLUME", "setting": "120 h, time 5 day", "value": 61.17, "unit": "fL"}, {"measurement": "MONOCYTE", "setting": "120 h, time 5 day", "value": 3.67, "unit": "%"}, {"measurement": "NEUTROPHIL", "setting": "120 h, time 5 day", "value": 12.33, "unit": "%"}, {"measurement": "NUCLEATED RED BLOOD CELLS", "setting": "120 h, time 5 day", "value": "0 /100WBC"}, {"measurement": "PLATELET COUNT", "setting": "120 h, time 5 day", "value": 1450, "unit": "x10E3/uL"}, {"measurement": "ALANINE AMINOTRANSFERASE", "setting": "120 h, time 5 day", "value": 54.67, "unit": "u/L"}, {"measurement": "ALBUMIN", "setting": "120 h, time 5 day", "value": 3.87, "unit": "G/DL"}, {"measurement": "ALKALINE PHOSPHATASE", "setting": "120 h, time 5 day", "value": 644.33, "unit": "u/L"}, {"measurement": "ASPARTATE AMINOTRANSFERASE", "setting": "120 h, time 5 day", "value": 72.67, "unit": "u/L"}, {"measurement": "BLOOD UREA NITROGEN", "setting": "120 h, time 5 day", "value": 8.33, "unit": "mg/dL"}, {"measurement": "CARBON DIOXIDE", "setting": "120 h, time 5 day", "value": 22.33, "unit": "mmol/L"}, {"measurement": "CHLORIDE", "setting": "120 h, time 5 day", "value": 101.33, "unit": "MEQ/L"}, {"measurement": "CHOLESTEROL", "setting": "120 h, time 5 day", "value": 17.33, "unit": "mg/dL"}, {"measurement": "CREATINE PHOSPHOKINASE", "setting": "120 h, time 5 day", "value": 692.67, "unit": "u/L"}, {"measurement": "CREATININE", "setting": "120 h, time 5 day", "value": 0.12, "unit": "mg/dL"}, {"measurement": "GLUCOSE", "setting": "120 h, time 5 day", "value": 153.33, "unit": "mg/dL"}, {"measurement": "LACTATE DEHYDROGENASE", "setting": "120 h, time 5 day", "value": 158, "unit": "u/L"}, {"measurement": "LIPASE", "setting": "120 h, time 5 day", "value": 4.33, "unit": "u/L"}, {"measurement": "PHOSPHORUS", "setting": "120 h, time 5 day", "value": 10.27, "unit": "mg/dL"}, {"measurement": "POTASSIUM", "setting": "120 h, time 5 day", "value": 5.78, "unit": "MEQ/L"}, {"measurement": "SODIUM", "setting": "120 h, time 5 day", "value": 139.87, "unit": "MEQ/L"}, {"measurement": "TOTAL BILIRUBIN", "setting": "120 h, time 5 day", "value": 0.23, "unit": "mg/dL"}, {"measurement": "TOTAL PROTEIN", "setting": "120 h, time 5 day", "value": 6.07, "unit": "G/DL"}, {"measurement": "URIC ACID", "setting": "120 h, time 5 day", "value": 1.63, "unit": "mg/dL"}]}
